From patent publication US12577245B2, “Sulfonyl benzamide derivatives as Bcl-2 inhibitors” (ASCENTAGE PHARMA (SUZHOU) CO., LTD., priority 2021, dated 2026)

Target: Bcl-2 G101V (Homo sapiens, UniProt P10415, G101V)
Assay: Bcl-2 G101V inhibition, fluorescence polarization (Flu-BIM tracer) binding assay
Conditions: FP; 20 nM Bcl2, 5 nM Flu-BIM, 1 h incubation; read-out: Bcl-2 G101V (FP)

Row | SMILES | IC50 [nM]
1 | CC1(C)CCC(CN2CCN(c3ccc(C(=O)NS(=O)(=O)c4ccc(NC[C@H]5CC[C@](C)(O)CC5)c([N+](=O)[O-])c4)c(Oc4cnc5[nH]ccc5c4)c3)CC2)=C(c2cc(-c3ccc4c(c3)CCC4(C)O)cs2)C1 (stereo partly shown) [Example 79, 2-((1H-pyrrolo[2,3-b]pyridin-5-yl)oxy)-4-(4-((2-(4-(1-hydroxy-1-methyl-2,3-dihydro-1H-inden-5-yl)thiophen-2-yl)-4,4-dimethylcyclohex-1-en-1-yl)methyl)piperazin-1-yl)-N-((4-((((1r,4r)-4-hydroxy-4-methylcyclohexyl)methyl)amino)-3-nitrophenyl)sulfonyl)benzamide] | 22.1
2 | CC(=O)NC(C)(C)c1cc(F)c(-c2csc(C3=C(CN4CCN(c5ccc(C(=O)NS(=O)(=O)c6ccc(NC[C@H]7CC[C@](C)(O)CC7)c([N+](=O)[O-])c6)c(Oc6cnc7[nH]ccc7c6)c5)CC4)CCC(C)(C)C3)c2)c(F)c1 [Example 80, 2-((1H-pyrrolo[2,3-b]pyridin-5-yl)oxy)-4-(4-((2-(4-(4-(2-acetamidopropan-2-yl)-2,6-difluorophenyl)thiophen-2-yl)-4,4-dimethylcyclohex-1-en-1-yl)methyl)piperazin-1-yl)-N-((4-((((1r,4r)-4-hydroxy-4-methylcyclohexyl)methyl)amino)-3-nitrophenyl)sulfonyl)benzamide] | 23.4
3 | Cc1sc(C2=C(CN3CCN(c4ccc(C(=O)NS(=O)(=O)c5ccc(NC[C@H]6CC[C@](C)(O)CC6)c([N+](=O)[O-])c5)c(Oc5cnc6[nH]ccc6c5)c4)CC3)CCC(C)(C)C2)cc1-c1c(F)cc(C(C)(C)O)cc1F [Example 81, 2-((1H-pyrrolo[2,3-b]pyridin-5-yl)oxy)-4-(4-((2-(4-(2,6-difluoro-4-(2-hydroxypropan-2-yl)phenyl)-5-methylthiophen-2-yl)-4,4-dimethylcyclohex-1-en-1-yl)methyl)piperazin-1-yl)-N-((4-((((1r,4r)-4-hydroxy-4-methylcyclohexyl)methyl)amino)-3-nitrophenyl)sulfonyl)benzamide] | 103
4 | CC1(C)CCC(CN2CCN(c3ccc(C(=O)NS(=O)(=O)c4ccc(NC[C@H]5CC[C@](C)(O)CC5)c([N+](=O)[O-])c4)c(Oc4cnc5[nH]ccc5c4)c3)CC2)=C(c2cc(-c3c(F)cc(C(C)(C)C(=O)O)cc3F)cs2)C1 [Example 82, 2-(4-(5-(2-((4-(3-((1H-pyrrolo[2,3-b]pyridin-5-yl)oxy)-4-(((4-((((1r,4r)-4-hydroxy-4-methylcyclohexyl)methyl)amino)-3-nitrophenyl)sulfonyl)carbamoyl)phenyl)piperazin-1-yl)methyl)-5,5-dimethylcyclohex-1-en-1-yl)thiophen-3-yl)-3,5-difluorophenyl)-2-methylpropanoic acid] | 22.3
